According to PubChem BioAssay AID1845199 (Molecular Pharmacology Branch, DTP, NCI, 2023):

Tested on: 556581-035-R-J1 tumor spheroid viability, % test/control
Experiment: Anticancer human tumor 556581-035-R-J1 patient-derived ovarian carcinoma cell line growth inhibition
Settings: spheroids with HUVEC and MSC; for IC50: curve of first compound; for viability, T/C: stronger effect = lower value
How it was run: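 Complex spheroids of malignant cells with endothelial cells and mesenchymal stem cells; agents alone or combined, from near clinical Cmax (or 10 microM if unknown) down in half-log steps, 0.25% DMSO final.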

[1] = second compound 1 µM, first compound 0.0316 µM
[2] = second compound 1 µM, first compound 0.1 µM
[3] = second compound 1 µM, first compound 0.316 µM
[4] = second compound 1 µM, first compound 1 µM
[5] = second compound 1 µM, first compound 3.16 µM
[6] = second compound 1 µM, first compound 10 µM
[7] = second compound 3.16 µM, first compound 0.0316 µM
[8] = second compound 3.16 µM, first compound 0.1 µM
[9] = second compound 3.16 µM, first compound 0.316 µM
[10] = second compound 3.16 µM, first compound 1 µM
[11] = second compound 3.16 µM, first compound 3.16 µM
[12] = second compound 3.16 µM, first compound 10 µM
[13] = second compound 10 µM, first compound 0.0316 µM
[14] = second compound 10 µM, first compound 0.1 µM
[15] = second compound 10 µM, first compound 0.316 µM
[16] = second compound 10 µM, first compound 1 µM
[17] = second compound 10 µM, first compound 3.16 µM
[18] = second compound 10 µM, first compound 10 µM
[19] = second compound 31.6 µM, first compound 0.0316 µM
[20] = second compound 31.6 µM, first compound 0.1 µM
[21] = second compound 31.6 µM, first compound 0.316 µM
[22] = second compound 31.6 µM, first compound 1 µM
[23] = second compound 31.6 µM, first compound 3.16 µM
[24] = second compound 31.6 µM, first compound 10 µM
[25] = second compound 100 µM, first compound 0.0316 µM
[26] = second compound 100 µM, first compound 0.1 µM
[27] = second compound 100 µM, first compound 0.316 µM
[28] = second compound 100 µM, first compound 1 µM
[29] = second compound 100 µM, first compound 3.16 µM
[30] = second compound 100 µM, first compound 10 µM
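Also: spheroids exposed to compounds for 7 days before viability read.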

SMILES	IC50 (second compound 1 µM) [µM]	IC50 (second compound 3.16 µM) [µM]	IC50 (second compound 10 µM) [µM]	IC50 (second compound 31.6 µM) [µM]	IC50 (second compound 100 µM) [µM]	viability, T/C [1] [%]	viability, T/C [2] [%]	viability, T/C [3] [%]	viability, T/C [4] [%]	viability, T/C [5] [%]	viability, T/C [6] [%]	viability, T/C [7] [%]	viability, T/C [8] [%]	viability, T/C [9] [%]	viability, T/C [10] [%]	viability, T/C [11] [%]	viability, T/C [12] [%]	viability, T/C [13] [%]	viability, T/C [14] [%]	viability, T/C [15] [%]	further results
CC1COCCN1c1cc(-c2ccnn2C)c2ccnc(-c3ccn[nH]3)c2n1 (stereo not given) + Cn1nnc2c(C(N)=O)ncn2c1=O	0.565	0.591	0.679	0.604	0.392	93.7	69.3	56.3	43.7	39.9	33	90.6	72.5	56.4	44.2	37.8	32.5	86.8	71	56	viability, T/C [16]: 45.9%; viability, T/C [17]: 40%; viability, T/C [18]: 31.2%; viability, T/C [19]: 88.9%; viability, T/C [20]: 71.6%; viability, T/C [21]: 54.6%; viability, T/C [22]: 45.8%; viability, T/C [23]: 39.1%; viability, T/C [24]: 33.4%; viability, T/C [25]: 82.8%; viability, T/C [26]: 63.8%; viability, T/C [27]: 51.7%; viability, T/C [28]: 42.8%; viability, T/C [29]: 38.1%; viability, T/C [30]: 32.8%
COc1cc(C)[nH]c(=O)c1CN1CCc2c(Cl)cc(C(OC)C3COC3)c(Cl)c2C1=O (stereo not given) + Cn1nnc2c(C(N)=O)ncn2c1=O	> 10	> 10	> 10	> 10	> 10	105	102	117	109	107	102	99.3	113	100	107	105	105	105	106	106	viability, T/C [16]: 112%; viability, T/C [17]: 111%; viability, T/C [18]: 104%; viability, T/C [19]: 115%; viability, T/C [20]: 118%; viability, T/C [21]: 110%; viability, T/C [22]: 107%; viability, T/C [23]: 108%; viability, T/C [24]: 108%; viability, T/C [25]: 112%; viability, T/C [26]: 107%; viability, T/C [27]: 106%; viability, T/C [28]: 115%; viability, T/C [29]: 114%; viability, T/C [30]: 103%
Cc1cc(C)c(CNC(=O)c2cc(-c3ccc(CN4CCOCC4)cc3)cc3c2cnn3C2CCCC2)c(=O)[nH]1 + Cn1nnc2c(C(N)=O)ncn2c1=O	> 10	> 10	> 10	> 10	> 10	105	107	110	103	110	88	107	108	112	108	108	88.2	118	118	111	viability, T/C [16]: 121%; viability, T/C [17]: 114%; viability, T/C [18]: 93.6%; viability, T/C [19]: 115%; viability, T/C [20]: 105%; viability, T/C [21]: 116%; viability, T/C [22]: 108%; viability, T/C [23]: 110%; viability, T/C [24]: 86.1%; viability, T/C [25]: 113%; viability, T/C [26]: 116%; viability, T/C [27]: 107%; viability, T/C [28]: 122%; viability, T/C [29]: 109%; viability, T/C [30]: 84.8%
[2H]c1nc(C)nc([2H])c1-c1cc(NC[C@@H](C)c2cccc3c(C(=O)NC)ccnc23)ncn1 + Cn1nnc2c(C(N)=O)ncn2c1=O	> 10	> 10	> 10	> 10	> 10	111	111	106	112	108	112	98.7	104	106	115	119	113	105	103	115	viability, T/C [16]: 112%; viability, T/C [17]: 113%; viability, T/C [18]: 115%; viability, T/C [19]: 116%; viability, T/C [20]: 109%; viability, T/C [21]: 115%; viability, T/C [22]: 119%; viability, T/C [23]: 116%; viability, T/C [24]: 112%; viability, T/C [25]: 115%; viability, T/C [26]: 114%; viability, T/C [27]: 116%; viability, T/C [28]: 114%; viability, T/C [29]: 108%; viability, T/C [30]: 114%
